One data set concerns the target KRAS G12D (Homo sapiens, UniProt P01116, G12D). Kind of data set: GDP-GTP exchange assay (KRAS G12D).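 Note: one dagger IC50 up to 100 nM and two daggers above 100 nM up to 1 μM.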 Type of data set: biochemical. The conditions noted are these: bodipy-GDP/GppNHp exchange with SOS1; 4 h pre-incubation, 2 h reaction. Put shortly:
(§1)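 IC50 came from a four-parameter fit of fluorescence loss (485/520 nm) as SOS1 (150 nM) swapped bodipy-GDP for GppNHp (500 μM) on 2.5 nM KRAS, final concentrations. Compounds were pre-incubated 4 h at r.t. (pH 7.5 Hepes, 10 mM MgCl2); exchange ran 2 h (G12D) or 3 h (G12V).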

The next data set deals with KRAS G12V (Homo sapiens, UniProt P01116, G12V). Put plainly: GDP-GTP exchange assay (KRAS G12V).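 Note: one dagger IC50 up to 100 nM and two daggers above 100 nM up to 1 μM.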 It is filed as biochemical. Conditions: bodipy-GDP/GppNHp exchange with SOS1; 3 h incubation after GppNHp-SOS1. In outline: as §1
The nature of data set [1]: Caco2 assay (permeability, Papp A-B). It is filed as in vitro ADME. The conditions noted are these: human, Caco-2, absorptive direction (A-B), 50 μM test compound, 4% BSA in receiver. Put shortly: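 Absorptive (A-B) Papp: 50 μM test compound in HBSS added to apical side of 22-25-day Caco-2 monolayers (TEER 300 Ω·cm^2), receiver buffer containing 4% BSA. After 120 min at 37 °C, 5% CO2, both sides analysed by LCMS; Papp calculated from flux rate normalized to area and donor amount.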

Sequence of KRAS G12V (P01116 1-188 isoform P01116-2 G12V): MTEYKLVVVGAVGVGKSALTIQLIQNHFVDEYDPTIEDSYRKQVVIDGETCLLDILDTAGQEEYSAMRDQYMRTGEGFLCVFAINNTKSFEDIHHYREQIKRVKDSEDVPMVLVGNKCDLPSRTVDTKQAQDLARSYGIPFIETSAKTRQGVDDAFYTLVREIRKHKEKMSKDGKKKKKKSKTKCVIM
Sequence of KRAS G12D (P01116 1-188 isoform P01116-2 G12D): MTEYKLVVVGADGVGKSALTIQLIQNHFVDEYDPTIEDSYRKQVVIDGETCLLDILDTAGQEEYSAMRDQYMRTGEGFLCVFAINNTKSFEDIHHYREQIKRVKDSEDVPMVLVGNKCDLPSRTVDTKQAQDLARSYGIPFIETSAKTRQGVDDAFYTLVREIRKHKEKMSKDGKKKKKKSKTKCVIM

On to `Cc1nc2c(F)c(-c3cccc(Cl)c3Cl)c(CCC#N)cc2c2c1cc([C@H]1[C@H]3C[C@H](CN(c4cncc(C(F)(F)F)c4)C3)N1C(=O)C1CC1)n2[C@H]1[C@H]2CN[C@@H]1C2` (atropisomer, axis not shown; (Ra)) [Example 21, 3-((Ra)-1-((1R,4R,5S)-2-azabicyclo[2.1.1]hexan-5-yl)-2-((1S,5R,7R)-6-(cyclopropanecarbonyl)-3-(5-(trifluoromethyl)pyridin-3-yl)-3,6-diazabicyclo[3.2.1]octan-7-yl)-7-(2,3-dichlorophenyl)-6-fluoro-4-methyl-1H-pyrrolo[3,2-c]quinolin-8-yl)propanenitrile], for which the “G12D_exchange (KRAS_G12D exchange assay IC50)” value (from here on “G12D_exchange”) at KRAS G12D was “†”. The “G12V_exchange (KRAS_G12V exchange assay IC50)” value (from here on “G12V_exchange”) at KRAS G12V is given as “†”. In addition, the apical-to-basolateral permeability (Papp A→B) (usually how fast a substance crosses the layer from the apical side) at 120 min, 50 μM in data set [1] is no more than 0.5 ×10⁻⁶ cm/s.
In the case of `Cc1nc2c(F)c(-c3cccc(Cl)c3Cl)c(CCC#N)cc2c2c1cc([C@H]1[C@H]3C[C@H](CN(c4ccc(C(F)F)nc4)C3)N1C(=O)C1CC1)n2[C@H]1[C@H]2CN[C@@H]1C2` (atropisomer, axis not shown; (Ra)) [Example 22, 3-((Ra)-1-((1R,4R,5S)-2-azabicyclo[2.1.1]hexan-5-yl)-2-((1S,5R,7R)-6-(cyclopropanecarbonyl)-3-(6-(difluoromethyl)pyridin-3-yl)-3,6-diazabicyclo[3.2.1]octan-7-yl)-7-(2,3-dichlorophenyl)-6-fluoro-4-methyl-1H-pyrrolo[3,2-c]quinolin-8-yl)propanenitrile], the “G12D_exchange” value at KRAS G12D is recorded as “†”. Moreover, the “G12V_exchange” value at KRAS G12V is reported as “†”. The compound also showed a Papp A→B at 120 min, 50 μM in data set [1] of no more than 0.5 ×10⁻⁶ cm/s.
Regarding `Cc1nc2c(F)c(-c3cccc(Cl)c3Cl)c(CCC#N)cc2c2c1cc([C@H]1[C@H]3C[C@H](CN(c4ccc(F)cc4)C3)N1C(=O)C1CC1)n2[C@H]1[C@H]2CN[C@@H]1C2` (atropisomer, axis not shown; (Ra)) [Example 23, 3-((Ra)-1-((1R,4R,5S)-2-azabicyclo[2.1.1]hexan-5-yl)-2-((1S,5R,7R)-6-(cyclopropanecarbonyl)-3-(4-fluorophenyl)-3,6-diazabicyclo[3.2.1]octan-7-yl)-7-(2,3-dichlorophenyl)-6-fluoro-4-methyl-1H-pyrrolo[3,2-c]quinolin-8-yl)propanenitrile], the “G12D_exchange” value at KRAS G12D is “†”. Also, on KRAS G12V, the “G12V_exchange” value is on record as “†”. Besides, the Papp A→B at 120 min, 50 μM in data set [1] was no more than 0.5 ×10⁻⁶ cm/s.
Consider `COc1ccc(N2C[C@@H]3C[C@H](C2)N(C(=O)C2CC2)[C@H]3c2cc3c(C)nc4c(F)c(-c5cccc(Cl)c5Cl)c(CCC#N)cc4c3n2[C@H]2[C@H]3CN[C@@H]2C3)cn1` (atropisomer, axis not shown; (Ra)) [Example 24, 3-((Ra)-1-((1R,4R,5S)-2-azabicyclo[2.1.1]hexan-5-yl)-2-((1S,5R,7R)-6-(cyclopropanecarbonyl)-3-(6-methoxypyridin-3-yl)-3,6-diazabicyclo[3.2.1]octan-7-yl)-7-(2,3-dichlorophenyl)-6-fluoro-4-methyl-1H-pyrrolo[3,2-c]quinolin-8-yl)propanenitrile], for which, on KRAS G12D, the “G12D_exchange” value is listed as “††”. For the same compound, on KRAS G12V, the “G12V_exchange” value was “†”. The compound further gave an apparent permeability from apical to basolateral (Papp A→B) at 120 min, 50 μM in data set [1] of no more than 0.5 ×10⁻⁶ cm/s.
Regarding `Cc1nc2c(F)c(-c3cccc(Cl)c3Cl)c(CCC#N)cc2c2c1cc([C@H]1[C@H]3C[C@H](CN(c4ccc(OC(F)F)cc4)C3)N1C(=O)C1CC1)n2[C@H]1[C@H]2CN[C@@H]1C2` (atropisomer, axis not shown; (Ra)) [Example 25, 3-((Ra)-1-((1R,4R,5S)-2-azabicyclo[2.1.1]hexan-5-yl)-2-((1S,5R,7R)-6-(cyclopropanecarbonyl)-3-(4-(difluoromethoxy)phenyl)-3,6-diazabicyclo[3.2.1]octan-7-yl)-7-(2,3-dichlorophenyl)-6-fluoro-4-methyl-1H-pyrrolo[3,2-c]quinolin-8-yl)propanenitrile], the “G12D_exchange” value at KRAS G12D is “††”. The “G12V_exchange” value at KRAS G12V is “†”. The compound further showed a Papp A→B at 120 min, 50 μM in data set [1] of no more than 0.5 ×10⁻⁶ cm/s.
Take `Cc1nc2c(F)c(-c3cccc(Cl)c3Cl)c(CCC#N)cc2c2c1cc([C@H]1[C@H]3C[C@H](CN(c4cccc(OC(F)F)c4)C3)N1C(=O)C1CC1)n2[C@H]1[C@H]2CN[C@@H]1C2` (atropisomer, axis not shown; (Ra)) [Example 26, 3-((Ra)-1-((1R,4R,5S)-2-azabicyclo[2.1.1]hexan-5-yl)-2-((1S,5R,7R)-6-(cyclopropanecarbonyl)-3-(3-(difluoromethoxy)phenyl)-3,6-diazabicyclo[3.2.1]octan-7-yl)-7-(2,3-dichlorophenyl)-6-fluoro-4-methyl-1H-pyrrolo[3,2-c]quinolin-8-yl)propanenitrile]: at KRAS G12D, the “G12D_exchange” value is “††”. In addition, the “G12V_exchange” value on KRAS G12V is recorded as “†”. Moreover, the Papp A→B at 120 min, 50 μM in data set [1] is no more than 0.5 ×10⁻⁶ cm/s.
As for `Cc1nc2c(F)c(-c3cccc(Cl)c3Cl)c(CCC#N)cc2c2c1cc([C@H]1[C@H]3C[C@H](CN(c4cnn(C(F)(F)F)c4)C3)N1C(=O)C1CC1)n2[C@H]1[C@H]2CN[C@@H]1C2` (atropisomer, axis not shown; (Ra)) [Example 27, 3-((Ra)-1-((1R,4R,5S)-2-azabicyclo[2.1.1]hexan-5-yl)-2-((1S,5R,7R)-6-(cyclopropanecarbonyl)-3-(1-(trifluoromethyl)-1H-pyrazol-4-yl)-3,6-diazabicyclo[3.2.1]octan-7-yl)-7-(2,3-dichlorophenyl)-6-fluoro-4-methyl-1H-pyrrolo[3,2-c]quinolin-8-yl)propanenitrile], the “G12D_exchange” value at KRAS G12D was “†”. For the same compound, the “G12V_exchange” value on KRAS G12V is “†”. In data set [1], this compound yielded a Papp A→B at 120 min, 50 μM of no more than 0.5 ×10⁻⁶ cm/s.
As to `Cc1nc2c(F)c(-c3cccc(Cl)c3Cl)c(CCC#N)cc2c2c1cc([C@H]1[C@H]3C[C@H](CN(c4ccc(OC(F)(F)F)cc4F)C3)N1C(=O)C1CC1)n2[C@H]1[C@H]2CN[C@@H]1C2` (atropisomer, axis not shown; (Ra)) [Example 28, 3-((Ra)-1-((1R,4R,5S)-2-azabicyclo[2.1.1]hexan-5-yl)-2-((1S,5R,7R)-6-(cyclopropanecarbonyl)-3-(2-fluoro-4-(trifluoromethoxy)phenyl)-3,6-diazabicyclo[3.2.1]octan-7-yl)-7-(2,3-dichlorophenyl)-6-fluoro-4-methyl-1H-pyrrolo[3,2-c]quinolin-8-yl)propanenitrile], the “G12D_exchange” value at KRAS G12D is reported as “††”. Besides, the “G12V_exchange” value at KRAS G12V is given as “†”. This compound gave an apparent permeability from apical to basolateral (Papp A→B) at 120 min, 50 μM in data set [1] of no more than 0.5 ×10⁻⁶ cm/s.
Regarding `Cc1nc2c(F)c(-c3cccc(Cl)c3Cl)c(CCC#N)cc2c2c1cc([C@H]1[C@H]3C[C@H](CN(c4cn(C)nc4C(F)(F)F)C3)N1C(=O)C1CC1)n2[C@H]1[C@H]2CN[C@@H]1C2` (atropisomer, axis not shown; (Ra)) [Example 29, 3-((Ra)-1-((1R,4R,5S)-2-azabicyclo[2.1.1]hexan-5-yl)-2-((1S,5R,7R)-6-(cyclopropanecarbonyl)-3-(1-methyl-3-(trifluoromethyl)-1H-pyrazol-4-yl)-3,6-diazabicyclo[3.2.1]octan-7-yl)-7-(2,3-dichlorophenyl)-6-fluoro-4-methyl-1H-pyrrolo[3,2-c]quinolin-8-yl)propanenitrile], the “G12D_exchange” value at KRAS G12D is listed as “†”. In addition, the “G12V_exchange” value on KRAS G12V is reported as “†”. In data set [1], this compound had an apical-to-basolateral permeability (Papp A→B) at 120 min, 50 μM of no more than 0.5 ×10⁻⁶ cm/s.
Take `Cc1ncnc(N2C[C@@H]3C[C@H](C2)N(C(=O)C2CC2)[C@H]3c2cc3c(C)nc4c(F)c(-c5cccc(Cl)c5Cl)c(CCC#N)cc4c3n2[C@H]2[C@H]3CN[C@@H]2C3)c1F` (atropisomer, axis not shown; (Ra)) [Example 31, 3-((Ra)-1-((1R,4R,5S)-2-Azabicyclo[2.1.1]hexan-5-yl)-2-((1 S,5R,7R)-6-(cyclopropanecarbonyl)-3-(5-fluoro-6-methylpyrimidin-4-yl)-3,6-diazabicyclo[3.2.1]octan-7-yl)-7-(2,3-dichlorophenyl)-6-fluoro-4-methyl-1H-pyrrolo[3,2-c]quinolin-8-yl)propanenitrile]: the “G12D_exchange” value at KRAS G12D is given as “†”. Besides, the “G12V_exchange” value on KRAS G12V is reported as “†”. In data set [1], this compound yielded a Papp A→B at 120 min, 50 μM of no more than 0.5 ×10⁻⁶ cm/s.
Consider `Cc1nc2c(F)c(-c3cccc(Cl)c3Cl)c(CCC#N)cc2c2c1cc([C@H]1[C@H]3C[C@H](CN(c4ncc(C(C)C)s4)C3)N1C(=O)C1CC1)n2[C@H]1[C@H]2CN[C@@H]1C2` (atropisomer, axis not shown; (Ra)) [Example 32, 3-((Ra)-1-((1R,4R,5S)-2-Azabicyclo[2.1.1]hexan-5-yl)-2-((1 S,5R,7R)-6-(cyclopropanecarbonyl)-3-(5-isopropylthiazol-2-yl)-3,6-diazabicyclo[3.2.1]octan-7-yl)-7-(2,3-dichlorophenyl)-6-fluoro-4-methyl-1H-pyrrolo[3,2-c]quinolin-8-yl)propanenitrile], for which the “G12D_exchange” value on KRAS G12D is recorded as “†”. Also, the “G12V_exchange” value at KRAS G12V was “†”. The compound also yielded a Papp A→B at 120 min, 50 μM in data set [1] greater than 1 ×10⁻⁶ cm/s.

The values above are taken from patent US20250195536A1, “BICYCLOOCTANE KRAS INHIBITORS” (Incyte Corporation, priority 2023, published 2025).
